Measured values published in US5447900A, “Thermosensitive recording material” (priority 1993, dated 1995).

Assay: Acid dissociation constant (pKa) by titration with sodium hydroxide, pH meter, in water/methanol 1:1
Type: physicochemical
Experimental: In Table 1, the acid dissociation constant of a compound was measured by the following method:
A commercially available pH meter "HORIBA N-8F" (Trademark), made by Horiba Ltd., equipped with three composite electrodes, was calibrated by using the following two solutions:
Water/methanol solution (with a volume ratio of 1:1) containing 0.05 mol/l potassium hydrogenphthalate.
Water/methanol solution (with a volume ratio of 1:1) containing 0.01 mol/l tris(hydroxy)aminomethane and 0.01 mol/l tris(hydroxy)aminomethane hydrochloride.
Then, a solution A was prepared in such a manner that 0.4969 g of 4-(4'-phenoxybutoxy)phthalic acid (Compound No. 1 in Table 1) and 0.5844 g of sodium chloride,were dissolved in a mixed solvent consisting of 50 ml of water and 50 ml of methanol.
In addition, a 0.1068 mol/l sodium hydroxide aqueous solution was prepared by standardizing the solution with potassium hydrogen-phthalate. This solution was hereinafter referred to as a solution B.
The solution A was placed in a beaker and stirred with a stirrer. The solution B was added dropwise in an amount of 0.5 to 1.0 ml to the solution A, with stirring, through a buret. When the pH of the solution A reached a constant value, the pH was measured. The pH was further measured with further addition of the solution B to the solution A, so that a titration curve was obtained. This titration curve was fitted in a theoretical formula by using a computer program, so that an acid dissociation constant of the compound No. 1 was calculated.

[1] = comparative color developer, solvent not given
[2] = mixed solvent of water and methanol, volume ratio 1:1

With `CC(C)(c1ccc(O)cc1)c1ccc(O)cc1` [4,4'-isopropylidene diphenol] the “acid dissociation constant pKa1 (printed pKal)” value [1] was roughly 10.7 and the “acid dissociation constant pKa2” value [1] was 10.7.
In the case of `CC(C)Oc1ccc(S(=O)(=O)c2ccc(O)cc2)cc1` [4-isopropoxy-4'-hydroxydiphenylsulfone], the “acid dissociation constant pKa” value [1] is reported as 8.27.
In the case of `O=C(O)c1ccc(OCCCCOc2ccccc2)cc1C(=O)O` [Compound No. 1, 4-(4'-phenoxybutoxy)phthalic acid], the “Acid Dissociation Constant pKa1” value [2] is reported as 3.55 and the “acid dissociation constant pKa2” value [2] is reported as 6.59.
